Data set [1] can be described thus: Drug uptake in live human HeLa cells assessed as drug internalization at 5 uM incubated for 15 mins to 2 hrs in presence of forskolin by live cell imaging analysis. Type of data set: ADME, cell-based. As to conditions: time 15-120 min; call rule not given here.
A short description of data set [2]: Drug uptake in live human HeLa cells assessed as drug internalization at 5 uM incubated for 15 mins to 2 hrs in absence of forskolin by live cell imaging analysis. Type of data set: ADME, cell-based. Conditions: time 15-120 min.
Data set [3] can be described thus: Drug uptake in endosome of human HeLa cells assessed as punctate perinuclear pattern formation at 1 to 5 uM incubated for 15 mins to 2 hrs by live cell imaging analysis. It is filed as ADME, subcellular. Conditions: dose lower 1 µM, time lower 15 min, dose upper 5 µM, time upper 120 min.
Data set [4] in a line: Drug uptake in cytoplasm of human HeLa cells at 1 to 5 uM incubated for 15 mins to 2 hrs by live cell imaging analysis. It is filed as ADME, subcellular. As to conditions: dose lower 1 µM, time lower 15 min, dose upper 5 µM, time upper 120 min.
Data set [5] is described as follows: Drug uptake in cell membrane of human HeLa cells assessed as observation of cell plasma membrane protrusions at 1 to 5 uM incubated for 15 mins to 2 hrs by live cell imaging analysis. It is filed as ADME, cell membranes. As to conditions: dose lower 1 µM, time lower 15 min, dose upper 5 µM, time upper 120 min.
Data set [6] is described as follows: Drug uptake in endosome of human HeLa cells assessed as punctate perinuclear pattern formation at 1 to 5 uM incubated for 15 mins to 2 hrs in presence of forskolin by live cell imaging analysis. Type of data set: ADME, subcellular. As to conditions: dose lower 1 µM, time lower 15 min, dose upper 5 µM, time upper 120 min.
Data set [7] in a line: Drug uptake in cytoplasm of human HeLa cells at 1 to 5 uM incubated for 15 mins to 2 hrs in presence of forskolin by live cell imaging analysis. It is filed as ADME, subcellular. As to conditions: dose lower 1 µM, time lower 15 min, dose upper 5 µM, time upper 120 min.
The nature of data set [8]: Drug uptake in cell membrane of human HeLa cells assessed as observation of cell plasma membrane protrusions at 1 to 5 uM incubated for 15 mins to 2 hrs in presence of forskolin by live cell imaging analysis. It is filed as ADME, cell membranes. Conditions: dose lower 1 µM, time lower 15 min, dose upper 5 µM, time upper 120 min.
Data set [9] is described as follows: Drug uptake in live human HeLa cells assessed as increase in fluorescence intensity at 1 to 5 uM by microplate reader analysis. It is filed as ADME, cell-based. As to conditions: TDE = time-dependent effect, dose lower 1 µM, time lower 15 min, dose upper 5 µM, time upper 120 min.

Regarding `CC[C@H](C)[C@H](NC(=O)CCC(=O)N[C@@H](CCCCNC(=O)[C@@H](CCCNC(=N)N)NC(=O)CCCCCCCC(=O)N1CCN(c2ncnc3[nH]ccc23)CC1)C(=O)N[C@H](CCCNC(=N)N)C(=O)N[C@H](CCCNC(=N)N)C(=O)N[C@H](CCCCNC(=O)CCCCC[N+]1=C(/C=C/C=C/C=C2\N(C)c3ccccc3C2(C)C)C(C)(C)c2ccccc21)C(N)=O)C(=O)NCC(=O)CF`, the Drug uptake entry in data set [1], in data set [2], in data set [3], in data set [4], in data set [5] and in data set [6] was “Active” throughout. Besides, the Drug uptake entry is “Active” in data set [7], “Active” in [8] and “Tde” in [9].

The record behind these values is ChEMBL document CHEMBL5137094, “Construction of Covalent Bisubstrate Inhibitor of Protein Kinase Reacting with Cysteine Residue at Substrate-Binding Site” (J Med Chem, 2022).
